Test results as given in US12522612B2, “PDE4 inhibitors, pharmaceutical compositions, and therapeutic applications” (BioTheryX, Inc., priority 2019, dated 2026).

Key:
TNF-α = experiment: Cell-based TNF-α inhibition assay in LPS-induced PBMCs (Meso Scale); details: PBMC, PBMCs pretreated 1 h, LPS 100 ng/mL 18-24 h, relative to stimulated DMSO control; for inhibition at 0.1 µM: compound concentration 0.1 μM; for inhibition at 1 µM: compound concentration 1 μM
Description: Frozen primary blood mononuclear cells (PBMCs) were quick thawed, washed once with RPMI 1640 media supplemented with 10% fetal bovine serum, 1% penicillin, and 1% streptomycin, and plated in a 96 well plate at 200,000 cells per well. The cells were pretreated with DMSO only as a control or a compound for 1 h, and then induced with LPS (lipopolysaccharide) (100 ng/mL) for 18-24 h. The supernatant was analyzed for TNF-α using the Meso Scale assay. Compound activity was determined as a percentage of the stimulated DMSO control. The results are summarized in Table 1, where A represents a percent inhibition value ≥60%; B represents a percent inhibition value <60% and ≥40%; C represents a percent inhibition value <40% and >20%; and D represents a single percent inhibition value <20%.

PDE4B = target: T1, PDE4B (Homo sapiens, UniProt Q07343); experiment: Protein degradation assay in A549 cells, western blot, PDE4B; assay type: cell-based; details: 24 h treatment, read-out: PDE4B degradation relative to DMSO
T1 construct: Whole cell extracts were prepared using an immunoprecipitation (IP) lysis buffer; endogenous in cells; host or cells: A549
Description: A549 cells were grown in RPMI 1640 media supplemented with 10% fetal bovine serum, streptomycin, and penicillin. The cells were plated in 6-well plates in the growth media. The next day, fresh growth media were replaced on the cells. The cells were then treated with a compound for 24 h at predetermined concentrations. Whole cell extracts were prepared using an immunoprecipitation (IP) lysis buffer. Briefly, the cells were washed once in PBS, and the cell pellets were resuspended in the IP lysis buffer and incubated for 15 min on ice. Cells debris was removed by centrifugation and the cleared whole cell lysates were transferred to new tubes for further analysis.
For a western blot analysis, the whole cell protein extracts were separated on 4-12% SDS-polyacrylamide gels, transferred to nitrocellulose, and probed with primary antibodies. Membranes were subsequently washed and probed with IRDYE® secondary antibodies. The signals were detected using an ODYSSEY® Imaging System. The antibodies used in the assay included anti-PDE4B antibody; anti-PDE4D antibodies (top, bottom, and short isoform); β-actin mouse monoclonal antibody; IRDYE® 680RD goat anti-rabbit antibody; and IRDYE® 800CW goat anti-mouse antibody. Compounds B2 to B4, B18, B49 to B52, B76, B77, B79, B81 to B83, B88, B89, and B91 were determined to be able to degradate PDE4B as high as about 50% relative to DMSO.

T1 sequence (Q07343 whole entry): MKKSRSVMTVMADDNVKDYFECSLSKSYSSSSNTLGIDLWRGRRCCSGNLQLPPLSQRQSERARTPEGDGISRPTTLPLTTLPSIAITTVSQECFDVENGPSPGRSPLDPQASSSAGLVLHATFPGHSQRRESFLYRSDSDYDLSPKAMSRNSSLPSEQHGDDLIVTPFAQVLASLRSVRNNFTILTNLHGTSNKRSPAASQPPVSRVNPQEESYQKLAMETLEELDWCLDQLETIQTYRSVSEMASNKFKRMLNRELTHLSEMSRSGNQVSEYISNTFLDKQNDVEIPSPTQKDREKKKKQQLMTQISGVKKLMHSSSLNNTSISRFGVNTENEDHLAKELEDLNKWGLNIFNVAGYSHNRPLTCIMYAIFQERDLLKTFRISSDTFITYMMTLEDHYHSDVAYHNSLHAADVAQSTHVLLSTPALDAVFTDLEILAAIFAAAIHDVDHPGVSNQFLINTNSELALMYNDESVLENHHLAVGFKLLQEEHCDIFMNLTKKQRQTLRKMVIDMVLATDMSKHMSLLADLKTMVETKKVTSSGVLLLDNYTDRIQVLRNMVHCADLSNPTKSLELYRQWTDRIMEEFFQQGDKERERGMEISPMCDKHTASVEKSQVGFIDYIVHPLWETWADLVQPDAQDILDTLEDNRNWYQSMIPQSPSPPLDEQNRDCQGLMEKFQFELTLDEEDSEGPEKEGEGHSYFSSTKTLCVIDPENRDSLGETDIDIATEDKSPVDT

Dmax (PDE4B) [%]	SMILES	inhibition at 0.1 µM (TNF-α) [%]	inhibition at 1 µM (TNF-α) [%]
≤ 50	Cc1ncsc1-c1ccc(CNC(=O)[C@@H]2C[C@@H](O)CN2C(=O)[C@@H](NC(=O)CCCCCCCCCCOc2cc(C(=O)Nc3c(Cl)cncc3Cl)ccc2OC(F)F)C(C)(C)C)cc1 [Compound B76, (2S,4R)-1-((S)-2-(11-(5-((3,5-Dichloropyridin-4-yl)carbamoyl)-2-(difluoromethoxy)phenoxy)undecanamido)-3,3-dimethylbutanoyl)-4-hydroxy-N-(4-(4-methylthiazol-5-yl)benzyl)pyrrolidine-2-carboxamide]	≥ 60	≥ 60
≤ 50	O=C1CCC(N2Cc3c(cc(F)cc3C3CCN(CCCCCCCOc4ccc(N5Cc6sccc6C5=O)cc4OC4CCCC4)CC3)C2=O)C(=O)N1 (stereo not shown) [Compound B91, 3-(4-(1-(7-(2-(Cyclopentyloxy)-4-(4-oxo-4,6-dihydro-5H-thieno[2,3-c]pyrrol-5-yl)phenoxy)heptyl)piperidin-4-yl)-6-fluoro-1-oxoisoindolin-2-yl)piperidine-2,6-dione]	–	–
≤ 50	CCOc1cc([C@@H](CS(C)(=O)=O)N2C(=O)c3cccc(NC(=O)CCOCCOCCNc4cccc5c4C(=O)N(C4CCC(=O)NC4=O)C5=O)c3C2=O)ccc1OC (stereo partly drawn) [Compound B89, 3-(2-(2-((2-(2,6-Dioxopiperidin-3-yl)-1,3-dioxoisoindolin-4-yl)amino)ethoxy)ethoxy)-N-(2-((S)-1-(3-ethoxy-4-methoxyphenyl)-2-(methylsulfonyl)ethyl)-1,3-dioxoisoindolin-4-yl)propanamide]	–	–
≤ 50	O=C1CCC(N2Cc3c(cc(F)cc3C3CCN(CCCCCCCOc4ccc(N5Cc6ccccc6C5=O)cc4OC4CCCC4)CC3)C2=O)C(=O)N1 (stereo not shown) [Compound B50, 3-(4-(1-(7-(2-(Cyclopentyloxy)-4-(1-oxoisoindolin-2-yl)phenoxy)heptyl)piperidin-4-yl)-6-fluoro-1-oxoisoindolin-2-yl)piperidine-2,6-dione]	–	< 20
≤ 50	COc1ccc(N2C(=O)c3ccccc3C2=O)cc1OCCCCCCCN1CCC(c2cc(F)cc3c2CN(C2CCC(=O)NC2=O)C3=O)CC1 (stereo not shown) [Compound B51, 2-(3-((7-(4-(2-(2,6-Dioxopiperidin-3-yl)-6-fluoro-1-oxoisoindolin-4-yl)piperidin-1-yl)heptyl)oxy)-4-methoxyphenyl)isoindoline-1,3-dione]	–	20 to 40
≤ 50	O=C1CCC(N2Cc3c(NCCCOCCOCCOCCOc4ccc(C(=O)Nc5c(Cl)cncc5Cl)cc4OCC4CC4)cccc3C2=O)C(=O)N1 (stereo not shown) [Compound B81, 3-(Cyclopropylmethoxy)-N-(3,5-dichloropyridin-4-yl)-4-(2-(2-(2-(3-((2-(2,6-dioxopiperidin-3-yl)-1-oxoisoindolin-4-yl)amino)propoxy)ethoxy)ethoxy)ethoxy)benzamide]	–	–
≤ 50	O=C1CCC(N2Cc3c(cc(F)cc3C3CCN(CCCCCCCN(C(=O)c4ccc(OC(F)F)c(OCC5CC5)c4)c4c(Cl)cncc4Cl)CC3)C2=O)C(=O)N1 (stereo not shown) [Compound B3, 3-(Cyclopropylmethoxy)-N-(3,5-dichloropyridin-4-yl)-4-(difluoromethoxy)-N-(7-(4-(2-(2,6-dioxopiperidin-3-yl)-6-fluoro-1-oxoisoindolin-4-yl)piperidin-1-yl)heptyl)benzamide]	< 20	< 20
≤ 50	CCOc1cc([C@@H](CS(C)(=O)=O)N2C(=O)c3cc(CCCCCCCC4CCN(c5cccc6c5C(=O)N(C5CCC(=O)NC5=O)C6=O)CC4)cc(NC(C)=O)c3C2=O)ccc1OC (stereo partly drawn) [Compound B88, N-(6-(7-(1-(2-(2,6-Dioxopiperidin-3-yl)-1,3-dioxoisoindolin-4-yl)piperidin-4-yl)heptyl)-2-((S)-1-(3-ethoxy-4-methoxyphenyl)-2-(methylsulfonyl)ethyl)-1,3-dioxoisoindolin-4-yl)acetamide]	–	–

More lines, now with the values behind:

SMILES	Dmax (PDE4B) [%]	inhibition at 0.1 µM (TNF-α) [%]	inhibition at 1 µM (TNF-α) [%]
O=C1CCC(N2Cc3c(C#CC4CCN(C(=O)CCCCOc5cc(C(=O)Nc6c(Cl)cncc6Cl)ccc5OC(F)F)CC4)cccc3C2=O)C(=O)N1 (stereo not shown) [Compound B18, N-(3,5-Dichloropyridin-4-yl)-4-(difluoromethoxy)-3-((5-(4-((2-(2,6-dioxopiperidin-3-yl)-1-oxoisoindolin-4-yl)ethynyl)piperidin-1-yl)-5-oxopentyl)oxy)benzamide]	≤ 50	≥ 60	≥ 60
CCOc1cc([C@@H](CS(C)(=O)=O)N2C(=O)c3cc(CCCCCCCCCCCCN4CCC(c5cc(F)cc6c5CN(C5CCC(=O)NC5=O)C6=O)CC4)cc(NC(C)=O)c3C2=O)ccc1OC (stereo partly drawn) [Compound B79, N-(6-(12-(4-(2-(2,6-Dioxopiperidin-3-yl)-6-fluoro-1-oxoisoindolin-4-yl)piperidin-1-yl)dodecyl)-2-((S)-1-(3-ethoxy-4-methoxyphenyl)-2-(methylsulfonyl)ethyl)-1,3-dioxoisoindolin-4-yl)acetamide]	≤ 50	≥ 60	≥ 60
COc1ccc([C@H](CS(C)(=O)=O)N2C(=O)c3csc(NC(C)=O)c3C2=O)cc1OC1CC1 [Compound A5, (R)—N-(5-(1-(3-cyclopropoxy-4-methoxyphenyl)-2-(methylsulfonyl)ethyl)-4,6-dioxo-5,6-dihydro-4H-thieno[3,4-c]pyrrol-1-yl)acetamide]	–	< 20	20 to 40
COc1ccc(C2CNC(=O)C2)cc1OCCCCCCCCC(=O)N[C@H](C(=O)N1C[C@H](O)C[C@H]1C(=O)NCc1ccc(-c2scnc2C)cc1)C(C)(C)C (stereo partly drawn) [Compound B67, (2S,4R)-4-Hydroxy-1-((2S)-2-(9-(2-methoxy-5-(5-oxopyrrolidin-3-yl)phenoxy)-nonanamido)-3,3-dimethylbutanoyl)-N-(4-(4-methylthiazol-5-yl)benzyl)pyrrolidine-2-carboxamide]	–	–	≥ 60
CCOc1cc([C@@H](CS(C)(=O)=O)N2C(=O)c3cc(C#CCCCCCN4CCC(c5cc(F)cc6c5CN(C5CCC(=O)NC5=O)C6=O)CC4)cc(NC(C)=O)c3C2=O)ccc1OC (stereo partly drawn) [Compound B47, N-(6-(7-(4-(2-(2,6-dioxopiperidin-3-yl)-6-fluoro-1-oxoisoindolin-4-yl)piperidin-1-yl)hept-1-yn-1-yl)-2-((S)-1-(3-ethoxy-4-methoxyphenyl)-2-(methylsulfonyl)ethyl)-1,3-dioxoisoindolin-4-yl)acetamide]	–	–	≥ 60
CCOc1cc([C@@H](CS(=O)(=O)C2CC2)N2C(=O)c3csc(NC(=O)C(F)(F)F)c3C2=O)ccc1OC [Compound A7, (S)—N-(5-(2-(cyclopropylsulfonyl)-1-(3-ethoxy-4-methoxyphenyl)ethyl)-4,6-dioxo-5,6-dihydro-4H-thieno[3,4-c]pyrrol-1-yl)-2,2,2-trifluoroacetamide]	–	< 20	< 20
COc1ccc(C2CNC(=O)C2)cc1OCCCCCCCN1CCC(c2cc(F)cc3c2CN(C2CCC(=O)NC2=O)C3=O)CC1 (stereo not shown) [Compound B53, 3-(6-Fluoro-4-(1-(7-(2-methoxy-5-(5-oxopyrrolidin-3-yl)phenoxy)heptyl)piperidin-4-yl)-1-oxoisoindolin-2-yl)piperidine-2,6-dione]	–	–	< 20
CCOc1cc([C@@H](CS(C)(=O)=O)N2C(=O)c3cccc(NC(=O)CCCCNCc4ccc(OCc5scc6c5CN(C5CCC(=O)NC5=O)C6=O)cc4)c3C2=O)ccc1OC (stereo partly drawn) [Compound B78, 5-((4-((5-(2,6-Dioxopiperidin-3-yl)-4-oxo-5,6-dihydro-4H-thieno[3,4-c]pyrrol-1-yl)methoxy)benzyl)amino)-N-(2-((S)-1-(3-ethoxy-4-methoxyphenyl)-2-(methylsulfonyl)ethyl)-1,3-dioxoisoindolin-4-yl)pentanamide]	–	–	≥ 60
O=C1CCC(N2C(=O)c3cccc(NCCOCCOCCOCCOc4ccc(C(=O)Nc5c(Cl)cncc5Cl)cc4OC(F)F)c3C2=O)C(=O)N1 (stereo not shown) [Compound B74, N-(3,5-Dichloropyridin-4-yl)-3-(difluoromethoxy)-4-(2-(2-(2-(2-((2-(2,6-dioxopiperidin-3-yl)-1,3-dioxoisoindolin-4-yl)amino)ethoxy)ethoxy)ethoxy)ethoxy)benzamide]	–	≥ 60	≥ 60
COc1ccc(N2Cc3ccc(NCCCCCCCN4CCC(c5cc(F)cc6c5CN(C5CCC(=O)NC5=O)C6=O)CC4)cc3C2=O)cc1OC1CCCC1 (stereo not shown) [Compound B56, 3-(4-(1-(7-((2-(3-(Cyclopentyloxy)-4-methoxyphenyl)-3-oxoisoindolin-5-yl)amino)heptyl)piperidin-4-yl)-6-fluoro-1-oxoisoindolin-2-yl)piperidine-2,6-dione]	–	–	40 to 60
